Data set [1] concerns tumor cell lines expressing the TAA. The data set is described as follows: CTL recognition of endogenous targets (tumor cell lines expressing the TAA). Format: cell-based, human. The note with it: for Tumor target cell line: only wells positive for peptide-pulsed targets.
For data set [2], the system named is wildtype peptide-pulsed target cells. The experiment in a line: CTL recognition of wildtype peptide-pulsed targets. Format: cell-based, human. The note with it: for pulsed EHM target cell line: positive responses/total tested, positive = 10% specific lysis above background or twice background and at least 50 pg IFNg/well in at least one of 48 wells.
For data set [3], the system named is peptide-pulsed target cells. To be noted: outside investigators; cited from earlier work.
Data set [4] concerns the target HLA-A*0101 (Homo sapiens, UniProt P04439, A114D/A174V/A182V/D101N/D185E/E176A/E190D/L180R/Q94H/R68K/S129P/T187R/V100A/V91M/W191G). The experiment in a line: Class I peptide-binding assay, HLA-A*0101.
For data set [5], the target named is HLA-A*2402 (Homo sapiens, UniProt P04439, D101N/D140Y/D185E/E176V/E190D/F33S/G103R/G107R/I119L/I121M/I306V/K335N/L105A/L180Q/L300P/N151K/N90K/Q86E/Q94H/R106L/R138H/R89G/T104I/T345S/V100E/W191G/Y123F). The experiment in a line: Class I peptide-binding assay, HLA-A*2402. To be noted: Table 19a, CEA-derived A24 binders.
The target in data set [6] is HLA-A*0301 (Homo sapiens, UniProt P04439). The data set is described as follows: Class I peptide-binding assay, HLA-A*0301.
For data set [7], the target named is HLA-A*1101 (Homo sapiens, UniProt P04439, A114D/D185E/E176A/F33Y/L180Q/S129P/T187R). The data set is described as follows: Class I peptide-binding assay, HLA-A*1101.
Data set [8] has as its target HLA-A*3101 (Homo sapiens, UniProt P04439, A270S/D185E/E176V/E277Q/F33T/G231S/G80R/H175R/I121M/I218V/I322F/K168Q/L300P/L318F/M331R/P217A/Q94H/R138Q/T323A/T345S/T97I/V358M). The experiment in a line: Class I peptide-binding assay, HLA-A*3101. To be noted: Table 16b, Her2/neu-derived.
Data set [9] has as its target HLA-A*6801 (Homo sapiens, UniProt P04439, A269V/D185E/E176V/E277Q/E87N/F33Y/G231S/I121M/I166T/I218V/L180W/L300P/L318F/N151K/P208A/P217A/Q86R/R169H/T345S). The data set is described as follows: Class I peptide-binding assay, HLA-A*6801. The note with it: Table 16b, Her2/neu-derived.
The target in data set [10] is HLA-A*3301 (Homo sapiens, UniProt P04439, A270S/D185E/E176V/E277Q/E87N/F33T/G231S/H175R/I121M/I218V/I322F/K168Q/K210R/L300P/L318F/M331R/P217A/Q86R/Q94H/R138Q/T323A/T345S/T97I/V358M/Y195H). The experiment in a line: Class I peptide-binding assay, HLA-A*3301. The note with it: Table 16b, Her2/neu-derived.
For data set [11] the following is noted: co-emulsified with HPV-derived CTL epitopes; cited from earlier work.
Setting [12] is: Table 18a, CEA-derived A1 binders.
[13] abbreviates: SW403 (A3+, p53−) and SW403/p53 transfectant (A3+, p53+).
The mark [14] stands for this setting: Table 16d, second part, positive/total tested.
[15] abbreviates: Table 16c, second part, positive/total tested.
Setting [16] is: 938mel (A3−, Mage2+, Mage3+) and 624mel (A3+, Mage2+, Mage3+).

Entries after “also recorded” stand apart in the source; their conditions may differ. Read-outs that look alike come from different tables or passages of the source. No end group written: not given here.

As usually defined, the IC50 is the midpoint of a concentration-inhibition curve. A low value points to inhibition by little substance.

With `CC[C@H](NC(=O)[C@H](CCCNC(=N)N)NC(=O)[C@H](CCCNC(=N)N)NC(=O)[C@@H](NC(=O)[C@@H](N)C(C)C)C(C)C)C(=O)N1CCC[C@H]1C(=O)N[C@@H](Cc1c[nH]cn1)C(=O)N[C@@H](Cc1c[nH]cn1)C(=O)N[C@@H](CCC(=O)O)C(=O)N[C@@H](CCCCN)C(=O)O` [VVRRBPHHEK], the “Immunogenicity Tumor” value in data set [1] (Table 20) is 1/2. Moreover, in data set [2] (Table 20), the “Immunogenicity Wildtype” value was 1/2. With “MAGE3.196 9-mer: MAGE3-derived B7 motif wildtype 9-mer”, in data set [3], the “CTL induction / antigenicity reported in the literature (in words)” value is “antigenicity”. Turning to `CC(C)C[C@H](NC(=O)[C@H](C)NC(=O)[C@@H]1CCCN1C(=O)[C@H](CO)NC(=O)[C@H](Cc1ccc(O)cc1)NC(=O)[C@@H](NC(=O)[C@@H](N)CS)[C@@H](C)O)C(=O)N[C@@H](CC(N)=O)C(=O)N[C@@H](CCCCN)C(=O)O` [compound 107], the “pulsed EHM target cell line” value in data set [2] is reported as 0/1.

As for `CC[C@H](C)[C@H](NC(=O)[C@@H](N)[C@@H](C)O)C(=O)N[C@@H](CO)C(=O)N1CCC[C@H]1C(=O)N[C@@H](CC(C)C)C(=O)N[C@@H](CC(N)=O)C(=O)N[C@H](C(=O)N[C@@H](CO)C(=O)N[C@@H](Cc1ccc(O)cc1)C(=O)N[C@@H](CCCCN)C(=O)O)[C@@H](C)O`, the “Immunogenicity Wildtype” value in data set [2] (Table 20) is on record as 2/3.

Turning to H-HSDSNFSPQY-OH, the 50% inhibitory concentration (IC50) in data set [4] (setting [12]) turned out to be 45 nM. In [5], H-LWWYNGQSL-OH showed an IC50 of 1460 nM. In the case of “MAGE3.189: MAGE3-derived A3 supertype wildtype peptide (Table 16c) (LLGDNQIMPK)”, the “CTL induction / antigenicity reported in the literature (in words)” value in data set [3] is reported as “antigenic”.

H-ITEKNSCLY-OH displayed a 50% inhibitory concentration (IC50) in [4] (setting [12]) of 641 nM. On to `CC[C@H](C)[C@H](NC(=O)[C@H](C)NC(=O)[C@H](CCSC)NC(=O)[C@H](C)NC(=O)[C@H](CCCNC(=N)N)NC(=O)[C@@H](NC(=O)[C@H](CCCNC(=N)N)NC(=O)[C@@H](NC(=O)CN)[C@@H](C)O)C(C)C)C(=O)N[C@@H](Cc1ccc(O)cc1)C(=O)N[C@@H](CCCCN)C(=O)O` [compound 111], for which the “pulsed EHM target cell line” value in [2] is 0/1. For `C[C@@H](O)[C@H](NC(=O)[C@@H](N)CCCCN)C(=O)N[C@@H](Cc1ccc(O)cc1)C(=O)N[C@@H](CCC(N)=O)C(=O)NCC(=O)N[C@@H](CO)C(=O)N[C@@H](Cc1ccc(O)cc1)C(=O)NCC(=O)N[C@@H](Cc1ccccc1)C(=O)N[C@@H](CCCCN)C(=O)O` [compound 104], in [1] (setting [13]), the “Tumor target cell line” value is listed as 0/1. The “Immunogenicity Tumor” value in data set [1] (setting [14]) is listed as 0/1. In data set [2] (setting [14]), the “Immunogenicity Wildtype” value is given as 0/1. In [2], the “pulsed EHM target cell line” value is 0/1. Regarding H-LTDNNSGSY-OH, the IC50 in data set [4] (setting [12]) was found to be 96 nM. Consider “p53.172B5K10: p53-derived A3 supertype analog, B at position 5 and K at position 10”, for which the “CTL recognition of tumor / endogenous targets (in words)” value in [1] is listed as “transfected tumor target cells; also recorded: p53 transfected tumor targets”; in data set [1] (listed as p53.172.B5KIO), “induce tumor-reactive CTLs”. For the same molecule, the “CTL recognition of wildtype peptide-pulsed targets (in words)” value in data set [2] was “recognize analog and wildtype peptide-pulsed targets; also recorded: recognize both the wildtype sequence; also recorded: lyse wildtype-peptide coated targets”. Turning to SSCMGGMNR [compound 117], the IC50 was found to be 550 nM in data set [6] (Table 16d, p53-derived) and 4.3 nM in [7] (Table 16d, p53-derived). As to `CC[C@H](C)[C@H](NC(=O)CNC(=O)[C@H](Cc1ccccc1)NC(=O)[C@@H](NC(=O)[C@@H](N)C(C)C)C(C)C)C(=O)N[C@@H](CC(C)C)C(=O)N[C@H](C(=O)N[C@@H](CCCCN)C(=O)N[C@@H](CCCNC(=N)N)C(=O)N[C@@H](CCCNC(=N)N)C(=O)O)[C@@H](C)CC` [compound 58], the IC50 in data set [6] (Table 16b, Her2/neu-derived) was determined as 3670 nM; in data set [8] it was 290 nM; in data set [9] it was 15 nM; in data set [10], 193 nM; in data set [7] (Table 16b, Her2/neu-derived), 375 nM.

In the case of H-LTQEFVQENY-OH, the IC50 in data set [4] (Table 18c, Mage2/3-derived A1 binders) was 96 nM. As to `CC[C@H](NC(=O)[C@H](CCCNC(=N)N)NC(=O)[C@H](CCCNC(=N)N)NC(=O)[C@@H](NC(=O)[C@@H](N)C(C)C)C(C)C)C(=O)N1CCC[C@H]1C(=O)N[C@@H](Cc1c[nH]cn1)C(=O)N[C@@H](Cc1c[nH]cn1)C(=O)N[C@@H](CCC(=O)O)C(=O)N[C@@H](CCCCN)C(=O)O` [compound 116], the “Tumor target cell line” value in data set [1] (setting [13]) was 1/2. Further, the “Immunogenicity Tumor” value in data set [1] (setting [14]) is recorded as 1/2. Further, the “Immunogenicity Wildtype” value in [2] (setting [14]) is 1/2. Moreover, the “pulsed EHM target cell line” value in data set [2] is recorded as 1/2.

As to `C[C@@H](O)[C@H](NC(=O)[C@@H](N)CCCCN)C(=O)N[C@@H](Cc1ccc(O)cc1)C(=O)N[C@@H](CCC(N)=O)C(=O)NCC(=O)N[C@@H](CO)C(=O)N[C@@H](Cc1ccc(O)cc1)C(=O)NCC(=O)N[C@@H](Cc1ccccc1)C(=O)N[C@@H](CCCCN)C(=O)O`, the “Immunogenicity Tumor” value in data set [1] (Table 20) was 0/1. Also, the “Immunogenicity Wildtype” value in data set [2] (Table 20) is 0/1. Consider `CC[C@H](C)[C@H](NC(=O)CNC(=O)[C@H](Cc1ccccc1)NC(=O)[C@@H](NC(=O)[C@@H](N)C(C)C)C(C)C)C(=O)N[C@@H](CC(C)C)C(=O)N[C@H](C(=O)N[C@@H](CCCCN)C(=O)N[C@@H](CCCNC(=N)N)C(=O)O)[C@@H](C)CC` [compound 57], for which the “Number of CTL inductions yielding positive responses/total tested, Wildtype-pulsed EHM target cell line” value in data set [2] (positive = 10% specific lysis above background (51Cr release) or twice background and at least 50 pg IFNγ/well in at least one of 48 wells) is given as 1/3.

On to `CC[C@H](C)[C@H](NC(=O)[C@@H](NC(=O)[C@@H](NC(=O)[C@H](CO)NC(=O)[C@@H](N)Cc1ccccc1)[C@@H](C)O)[C@@H](C)O)C(=O)N[C@@H](CC(N)=O)C(=O)N[C@@H](Cc1ccc(O)cc1)C(=O)N[C@H](C(=O)N[C@@H](CC(C)C)C(=O)N[C@@H](Cc1c[nH]c2ccccc12)C(=O)N[C@@H](CCCNC(=N)N)C(=O)O)[C@@H](C)O` [compound 80], for which the “Immunogenicity Wildtype” value in data set [2] (setting [15]) was 0/2.

In the case of `CC(C)C[C@H](NC(=O)[C@H](CC(C)C)NC(=O)[C@H](CC(C)C)NC(=O)[C@H](Cc1ccccc1)NC(=O)[C@H](Cc1c[nH]cn1)NC(=O)[C@@H](NC(=O)[C@@H](N)CC(C)C)C(C)C)C(=O)N[C@@H](CCCCN)C(=O)N[C@@H](CCCCN)C(=O)O` [compound 87], in [1] (setting [16]), the “Tumor target cell line” value was 0/1. The “Immunogenicity Tumor” value in data set [1] (setting [15]) is on record as 0/1. Take “aKXVAAWTLKAAa-NH2 [PADRE®, a=D-alanine, X=cyclohexylalanine]”: the “safety in the trial (in words)” value in [11] is given as “favorable safety profile”. In the case of `CC(C)[C@H](NC(=O)[C@@H](N)CCCNC(=N)N)C(=O)N[C@@H](CS)C(=O)N[C@@H](C)C(=O)N[C@@H](CS)C(=O)N1CCC[C@H]1C(=O)NCC(=O)N[C@@H](CCCNC(=N)N)C(=O)O` [compound 124], the “pulsed EHM target cell line” value in data set [2] is on record as 0/1.

Regarding `CC[C@H](C)[C@H](NC(=O)CNC(=O)[C@H](Cc1ccccc1)NC(=O)[C@@H](NC(=O)[C@@H](N)C(C)C)C(C)C)C(=O)N[C@@H](CC(C)C)C(=O)N[C@H](C(=O)N[C@@H](CCCCN)C(=O)N[C@@H](CCCNC(=N)N)C(=O)O)[C@@H](C)CC`, the “Immunogenicity Tumor” value in [1] (Table 20) is reported as 0/1. As for `CSCC[C@H](NC(=O)[C@H](CC(C)C)NC(=O)[C@H](CCCCN)NC(=O)[C@H](CCCCN)NC(=O)[C@H](Cc1c[nH]cn1)NC(=O)[C@H](CCCNC(=N)N)NC(=O)[C@H](CO)NC(=O)[C@@H](NC(=O)[C@@H](N)CO)[C@@H](C)O)C(=O)N[C@@H](Cc1ccccc1)C(=O)N[C@@H](CCCCN)C(=O)O` [compound 126], in data set [2], the “pulsed EHM target cell line” value is listed as 1/2. For the molecule `CC[C@H](C)[C@H](NC(=O)[C@@H](NC(=O)[C@@H](N)[C@@H](C)O)[C@@H](C)O)C(=O)N[C@@H](CC(N)=O)C(=O)N[C@@H](Cc1ccc(O)cc1)C(=O)N[C@H](C(=O)N[C@@H](CC(C)C)C(=O)N[C@@H](Cc1c[nH]c2ccccc12)C(=O)N[C@@H](CCCNC(=N)N)C(=O)O)[C@@H](C)O` [compound 82], the “Tumor target cell line” value in data set [1] (setting [16]) is reported as 2/5. For the same molecule, in data set [2], the “pulsed EHM target cell line” value is 7/7.
